# Measurements taken from paper PMC8269692 (Biochemistry, 2021).
# Molecular target: T1, human macrophage galactose-type lectin (hMGL) extracellular domain (Homo sapiens, UniProt Q8IUN9)
# T1 sequence (Q8IUN9 with tags, fused parts or gaps isoform Q8IUN9-2): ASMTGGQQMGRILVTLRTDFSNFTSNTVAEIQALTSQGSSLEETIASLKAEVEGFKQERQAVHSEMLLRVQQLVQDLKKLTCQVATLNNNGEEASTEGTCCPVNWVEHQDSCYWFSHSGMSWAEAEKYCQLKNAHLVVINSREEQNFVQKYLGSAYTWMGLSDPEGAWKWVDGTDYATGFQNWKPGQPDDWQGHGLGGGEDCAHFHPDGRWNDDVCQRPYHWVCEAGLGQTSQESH
# Test: ITC titration of ligands into hMGL
# Type: binding
# Settings: for KA: one-set-of-sites model
# [1] = ITC, buffered D2O (10 mM HEPES sodium salt, 50 mM NaCl, 2 mM CaCl2, pH 7.4), 25 °C
# [2] = ITC, buffered D2O, pH 7.4, 25 °C
# [3] = ITC, buffered H2O (10 mM HEPES sodium salt, 50 mM NaCl, 2 mM CaCl2, pH 7.4), 25 °C
# [4] = ITC, buffered H2O, pH 7.4, 25 °C
# [5] = deuterium isotope effect, DIE = H2O – D2O
structure (smiles),measurement,setting,value
"CC(=O)N[C@H]1C(O)O[C@H](CO)[C@H](O)[C@@H]1O (stereo partly drawn) [GalNAc, N-acetyl-D-galactosamine]",Kd,[1],7.25 µM
same,KA,[1],13.79 ×10^4 M^–1
same,"n (number of binding sites, stoichiometry)",[2],0.97
same,ΔG,[2],–7.01 kcal mol^–1
same,ΔH,[2],–6.81 kcal mol^–1
same,Δ−(TΔS),[2],–0.20 kcal mol^–1
same,Kd,[3],17.7 µM
same,KA,[3],5.64 ×10^4 M^–1
same,ΔG,[4],–6.49 kcal mol^–1
same,ΔH,[4],–11.30 kcal mol^–1
same,Δ−(TΔS),[4],4.81 kcal mol^–1
same,"n (number of binding sites, stoichiometry)","ITC, buffered H2O, pH 7.4, 25 °C, n normalized to active cell concentration of the dissociating trimer",0.99
same,ΔΔG,[5],0.52 kcal mol^–1
same,ΔΔH,[5],–4.49 kcal mol^–1
same,Δ−(TΔS),[5],5.01 kcal mol^–1
same,ΔΔH,"deuterium isotope effect, DIE = H2O – D2O, listed as free glycan",−4.49 kcal mol^–1
CC(=O)N[C@H]1[C@@H](O[C@H](C)[C@H](N)C(=O)O)O[C@H](CO)[C@H](O)[C@@H]1O [Thr-Tn],Kd,[3],16 to 17 µM
CO[C@@H]1O[C@H](CO)[C@@H](O)[C@H](O)[C@H]1O [methyl β-glucopyranoside],affinity for hMGL (result in words),"ITC, buffered H2O, 25 °C",no indication of a detectable affinity
"CO[C@H]1O[C@H](CO)[C@H](O)[C@H](O)[C@H]1NC(C)=O [α-Me-GalNAc, Methyl N-acetyl-α-D-galactosamine]",affinity relative to β-anomer and GalNAcα1-O-Thr conjugate,"ITC, buffered H2O, 25 °C",2 fold
